Source: patent EP2769723A1, “Compounds for use in inhibiting HIV capsid assembly” (priority 2013, dated 2014)

How the values were obtained:
[1] = system: wild type NL4.3 HIV-1; experiment: Tissue culture infectivity test, TZM titration of supernatants from infected TZM cells; assay type: cell-based; details: Human immunodeficiency virus 1, TZM, read-out: tissue culture IC50 (µM)
Method: Hits selected in the YFP-screen were further evaluated in the tissue culture experiments with cells infected with the wild type NL4.3 HIV-1. The virus for infection was obtained from co-culture of MT4 cells. The MT4 cells co-culture was synchronized for one week and then used for the infection of fresh MT 4 cells. 48 hrs post-infection was the culture supernatant harvested, cleared by the filtration through […] filter and stored in -80 °C in 1 ml aliquots. Amount of virus was quantified by enzyme-linked immuno sorbent assay (ELISA) with antibodies against HIV-1 CA (3 ng of CA/ml) and blue cell assay (1x10^5 IU/ml), which gives 3 x 10^4 IU/ng of CA.
For compounds testing the TZM cells were seeded on 96-well plate in the density 5 x 10^3 cells per well. The culture media was aspirated approx. 16 hrs later and cells were infected by the wild type NLA.3 HIV-1 by addition of 50J..il of prepared virus stock diluted with 50 µl of complete DMEM. The compounds were added twice to ensure that there are not any preassembled viruses present at the time of their addition. Compounds were first added 8 hrs post-infection and then 24 hrs later. In both cases the old culture media were replaced by 100 µl of fresh complete DMEM prior to the compounds addition. Different compounds concentrations were tested, but the DMSO concentration never exceeded 1 % DMSO. As controls were used cells treated only with 1 % DMSO and cells treated with 0,1 µM Lopinavir (HIV-1 protease inhibitor). Supernatant was harvested 24 hrs after the second compound addition, i.e. 56 hrs post-infection. Harvested supernatants were immediately titrated on the fresh TZM cells in aim to perform the infectivity assay (TZM titration), or inactivated by addition of Triton X-100 to the final concentration 0.025 % for further ELISA analysis.
TZM titration was performed on the cells seeded day before on 96-well plate in the density 5 x 10^3 cells per well. The analysis was performed for each compound concentration at three different dilutions and in duplicates. The culture media was aspired and cells were lysed 48 hrs post-infection by addition of 100 µl of SteadyGlo luciferase substrate (Promega) diluted 1 : 1 by complete DMEM. The luminescence signal was measured on Luminoskan Ascent (Thermo Labsystems) after the transfer of 80 µl of lysate to the flat bottom white polystyrene assay plates (Costar).

[2] = system: TZM cells; experiment: in vitro; assay type: cell-based; details: Table 4; non-cytotoxic when values higher than 80 % of 1 % DMSO treated cells
Method: Cytotoxicity of selected hits tested in the assay with NL4.3 infected cells was determined by MTT test. TZM cells were seeded on the previous day on 96-well plate in the density 5 x 10^3 cells per well. The tested compounds were added in different concentrations, but the DMSO concentration never exceeded 1 % DMSO. As controls were used cells treated only with 1 % DMSO (non-toxic concentration) and cells treated with 5 % DMSO (toxic concentration). 20 µl of the CellTiter 96 Aqueous One substrate (Promega) was added to the 100 µl of culture media 48 hrs after the compounds addition and the color development was quantified 4 hrs later by measuring the absorbance at 490 nm on Saphire reader. Compounds were consider non-cytotoxic (at given concentrations) when the measured values were higher than 80 % of the value of 1 % DMSO treated cells.

[3] = target: T1, CA (Human immunodeficiency virus type 1 group M subtype B, UniProt P12493); experiment: ALPHA screen (AlphaScreen): inhibition of CAI binding to CA; design: species or system HIV-1; details: CAI-biotin peptide / CA-GST; compounds screened at 0.5-100 µM; read-out: α screen IC50
T1 construct: a fusion protein of CA with glutathione-S-transferase (CA-GST)
Method: The AlphaScreen experiments are performed using Perkin Elmer Enspire plate reader in white 96-well ProxiPlates and PBS supplemented with 0.05% Tween20, 2mM DTT, 2% DMSO. First, Streptavidin-coated Donor beads are used to capture the CAI-biotin peptide. In the other solution, a fusion protein of CA with glutathione-S-transferase (CA-GST) is mixed with GSH Acceptor beads. Both mixtures were incubated and then mixed together. To test the ability of prepared organic compounds to inhibit the CAI binding to CA, they are screened at concentrations between 0.5-100 µM and IC50 values are calculated from the influenced signals.
Upon illumination by laser at 680 nm, Donor beads containing the photosensitizer phthalocyanine convert ambient oxygen to an excited form of singlet oxygen ^1O2. Singlet oxygen can within its half-life of ~ 4 µs diffuse approximately 200 nm in solution. If an Acceptor bead is within that proximity, which is mostly upon CA:CAI interaction, energy is transferred from the singlet oxygen to thioxene derivates within the Acceptor and signal at 520 - 620 nm is emitted.

| Compound | IC50 [1] | toxicity LC50 (µM) [2] | IC50 [3] |
| --- | --- | --- | --- |
| CC(=O)c1ccc(Nc2nc(-c3ccncc3)nc3ccccc23)cc1 [AMR-535] | < 5 µM | non-toxic |  |
| CCOC(=O)c1ccccc1Nc1nc(-c2ccncc2)nc2ccccc12 [AMR-540] | > 10 µM | non-toxic |  |
| CCOC(=O)c1cccc(Nc2nc(-c3ccncc3)nc3ccccc23)c1 [AMR-541] | < 5 µM | non-toxic |  |
| O=C(O)c1ccc(Nc2nc(-c3ccncc3)nc3ccccc23)cc1 [AMR-542] | > 10 µM | non-toxic |  |
| N#Cc1ccc(Nc2nc(-c3ccncc3)nc3ccccc23)cc1 [AMR-549] | > 10 µM | non-toxic |  |
| CS(=O)(=O)c1ccc(Nc2nc(-c3ccncc3)nc3ccccc23)cc1 [AMR-551] | > 10 µM | non-toxic |  |
| NC(=O)c1ccc(Nc2nc(-c3ccncc3)nc3ccccc23)cc1 [AMR-556] | > 10 µM | non-toxic |  |
| CNc1ccc(F)cc1Nc1nc(-c2ccncc2)nc2ccccc12 [AMR-558] | > 10 µM | non-toxic |  |
| CNc1ccc(F)cc1Nc1nc(-c2cccnc2)nc2ccccc12 [AMR-560] | ~12 µM | non-toxic |  |
| CC(O)c1ccc(Nc2nc(-c3ccncc3)nc3ccccc23)cc1 (stereo not shown) [AMR-566] | ~10 µM | non-toxic |  |
| CSc1ccc(Nc2nc(-c3ccncc3)nc3ccccc23)cc1 [AMR-570] | ~10 µM | non-toxic |  |
| C[S+]([O-])c1ccc(Nc2nc(-c3ccncc3)nc3ccccc23)cc1 (stereo not shown) [AMR-573] | > 10 µM | non-toxic |  |
| CCOC(=O)N1CCC(Nc2nc(-c3ccncc3)nc3ccccc23)CC1 [AMR-577] | > 10 µM | non-toxic |  |
| O=[N+]([O-])c1cc(Nc2nc(-c3cccnc3)nc3ccccc23)ccc1F [AMR.425] |  | non toxic | 7 µM |
| O=[N+]([O-])c1ccc(Nc2ccnc(-c3cccnc3)n2)c(F)c1 [KP-34] | > 25 µM | non-toxic |  |
| O=[N+]([O-])c1cc(Nc2ccnc(-c3cccnc3)n2)ccc1F [KP-43] |  | non-toxic |  |
| COc1cc2c(Nc3ccc([N+](=O)[O-])cc3F)nc(-c3cccnc3)nc2c(OC)c1OC [KP-66] | ~5 µM | non-toxic |  |
| O=[N+]([O-])c1ccc(Sc2nc(-c3cccnc3)nc3ccccc23)c(F)c1 [KP-76] | ~5 µM | non-toxic |  |
| O=[N+]([O-])c1cnccc1Nc1nc(-c2cccnc2)nc2ccccc12 [KP-92] | ~8 µM | non-toxic |  |
| O=[N+]([O-])c1ccc(Nc2cc(-c3cccnc3)nc3ccccc23)c(F)c1 [KP-94] | ~5 µM |  |  |
| Fc1cc(Nc2nc(-c3cccnc3)nc3ccccc23)c(F)c(F)c1F [KP-98] | ~15 µM | non-toxic |  |
| Fc1cc(F)c(Nc2nc(-c3cccnc3)nc3ccccc23)cc1Br [KP-100] |  | non-toxic |  |
| Fc1c(F)c(F)c(Nc2nc(-c3cccnc3)nc3ccccc23)c(F)c1F [KP-107] | ~7 µM | non-toxic |  |
| c1cncc(-c2nc(Nc3ccncn3)c3ccccc3n2)c1 [KP-111] | ~18 µM | non-toxic |  |
| CC(=O)OC[C@H]1O[C@@H](Sc2nc(-c3cccnc3)nc3ccccc23)[C@H](OC(C)=O)[C@@H](OC(C)=O)[C@@H]1OC(C)=O [KP-119] | > 25 µM | non-toxic |  |
| C=Cc1ccc2nc(-c3cccnc3)nc(Nc3cc(F)c(F)c(F)c3)c2c1 [KP-130] | > 25 µM | non-toxic |  |

| Compound | IC50 [1] | toxicity LC50 (µM) [2] | IC50 [3] |
| --- | --- | --- | --- |
| CCOP(=O)(OCC)c1cc([N+](=O)[O-])ccc1Nc1nc(-c2cccnc2)nc2ccccc12 [KP-139] | > 25 µM | non-toxic |  |
| Fc1cc(Nc2ncnc3ccccc23)cc(F)c1F [KP-152] | ~17 µM | non-toxic |  |
| Fc1cc(Nc2nc(-c3ccccc3)nc3ccccc23)cc(F)c1F [KP-153] | 10 to 15 µM | non-toxic |  |
| Fc1cc(Nc2nc(-c3cncc(Br)c3)nc3ccccc23)cc(F)c1F [KP-158 (old)] | 0.5 to 1 µM | non-toxic |  |
| Fc1cc(Nc2nc(-c3ccc(I)cc3)nc3ccccc23)cc(F)c1F [KP-161] | ~10 µM | non-toxic |  |
| Fc1cccc(Nc2nc(-c3cccnc3)nc3ccccc23)c1 [KP-165] | > 10 µM | non-toxic |  |
| Fc1cc(Nc2nc(Cl)nc3ccccc23)cc(F)c1F [KP-187] | > 10 µM | non-toxic |  |
| c1cncc(-c2nc(N3CCOCC3)c3ccccc3n2)c1 [KP-190] | > 10 µM | non-toxic |  |
| CCOC(=O)c1sc2nc(-c3cccnc3)nc(Nc3cc(F)c(F)c(F)c3)c2c1C [KP-199] | > 10 µM | non-toxic |  |
| Fc1ccc(Nc2nc(-c3cccnc3)nc3ccccc23)cc1Cl [KP-207] | > 10 µM | non-toxic |  |
| c1cncc(-c2nc(NC3CC3)c3ccccc3n2)c1 [KP-216] | > 10 µM | non-toxic |  |
| Cc1c(CO)sc2nc(-c3cccnc3)nc(Nc3cc(F)c(F)c(F)c3)c12 [KP-233] | > 10 µM | non-toxic |  |
| CCN(CC)c1nc(-c2cccnc2)nc2ccccc12 [KP-237] | > 10 µM | non-toxic |  |
| NNC(=O)c1ccc(Nc2nc(-c3cccnc3)nc3ccccc23)cc1 [KP-242] | > 10 µM | non-toxic |  |
| Oc1cc(Cl)cc(Nc2nc(-c3cccnc3)nc3ccccc23)c1 [KP-251] | ~5 µM | non-toxic |  |
| Clc1ccc(Nc2nc(-c3cccnc3)nc3ccccc23)c(Cl)c1Cl [KP-260] | > 10 µM | non-toxic |  |
| Fc1cc(Nc2nc(Nc3cc(F)c(F)c(F)c3)c3ccccc3n2)cc(F)c1F [KP-265] | ~10 µM | non-toxic |  |
| Fc1cc(Nc2nc(N3CCOCC3)nc3ccccc23)cc(F)c1F [KP-268] | > 10 µM | non-toxic |  |
| O=S(=O)(c1ccc(Nc2nc(-c3cccnc3)nc3ccccc23)cc1)c1nccs1 [KP-270] | > 10 µM | non-toxic |  |
| Fc1ccc(Nc2nc(-c3cccnc3)nc3ccccc23)cc1F [KP-271] | ~10 µM | non-toxic |  |
| COc1cc2nc(Nc3cc(F)c(F)c(F)c3)nc(Nc3cc(F)c(F)c(F)c3)c2cc1OC [KP-272] | < 5 µM | non-toxic |  |
| Cc1ccc(Nc2nc(-c3cccnc3)nc3ccccc23)cc1C(F)(F)F [KP-278] | ~10 µM | non-toxic |  |
| COc1ccc(Nc2nc(-c3cccnc3)nc3ccccc23)cn1 [KP-283] | > 10 µM | non-toxic |  |
| Oc1ccc2nc(-c3cccnc3)nc(Nc3cc(F)c(F)c(F)c3)c2c1 [OSR-217] |  | non-toxic |  |
| Oc1ccc2nc(-c3cccnc3)nc(O)c2c1 [OSR-243] |  | non-toxic |  |
